From PubChem BioAssay AID1259407 (Chemical Carcinogenesis Research Information System (CCRIS), 2018)
Calls of active or inactive are those of the source. No rule for the calls is given here.

Test system: CCRIS mutagenicity, Ames/micronucleus/aberration tests
Assay: CCRIS mutagenicity studies
[1] = Test System: AMES SALMONELLA TYPHIMURIUM, Strain/Indicator: TA98, Metabolic Activation: NONE, Method: PREINCUBATION
[2] = Test System: AMES SALMONELLA TYPHIMURIUM, Strain/Indicator: TA98, Metabolic Activation: RAT, LIVER, S-9, AROCLOR 1254, Method: PREINCUBATION
[3] = Test System: AMES SALMONELLA TYPHIMURIUM, Strain/Indicator: TA100, Metabolic Activation: NONE, Method: PREINCUBATION
[4] = Test System: AMES SALMONELLA TYPHIMURIUM, Strain/Indicator: TA100, Metabolic Activation: RAT, LIVER, S-9, AROCLOR 1254, Method: PREINCUBATION
[5] = Test System: AMES SALMONELLA TYPHIMURIUM, Strain/Indicator: TA100, Metabolic Activation: RAT, LIVER, S-9, AROCLOR, Method: PREINCUBATION
[6] = Test System: AMES SALMONELLA TYPHIMURIUM, Strain/Indicator: TA98, Metabolic Activation: NONE, Method: STANDARD PLATE
[7] = Test System: AMES SALMONELLA TYPHIMURIUM, Strain/Indicator: TA100, Metabolic Activation: NONE, Method: STANDARD PLATE

SMILES: O=c1oc2ccc([N+](=O)[O-])c3ccc4cccc1c4c23
- mutagenic call (Test System: AMES SALMONELLA TYPHIMURIUM, Strain/Indicator: TA98(1,8-DNP6), Metabolic Activation: NONE, Method: PREINCUBATION): active; positive
- mutagenic call (Test System: AMES SALMONELLA TYPHIMURIUM, Strain/Indicator: TA98(1,8-DNP6), Metabolic Activation: RAT, LIVER, S-9, AROCLOR 1254, Method: PREINCUBATION): inactive; negative
- mutagenic call (Test System: AMES SALMONELLA TYPHIMURIUM, Strain/Indicator: TA98(NR), Metabolic Activation: NONE, Method: PREINCUBATION): active; positive
- mutagenic call (Test System: AMES SALMONELLA TYPHIMURIUM, Strain/Indicator: TA98(NR), Metabolic Activation: RAT, LIVER, S-9, AROCLOR 1254, Method: PREINCUBATION): active; positive
- mutagenic call [1]: active; positive
- mutagenic call [2]: active; positive
- mutagenic call [3]: active; positive
- mutagenic call [4]: active; positive

SMILES: CCCCCCCCC1OC1CCCCCCCC(=O)OCC(CC)CCCC (stereo unspecified)
- mutagenic call (Test System: AMES SALMONELLA TYPHIMURIUM, Strain/Indicator: TA97, Metabolic Activation: HAMSTER, LIVER, S-9, AROCLOR 1254 (10% & 30%), Method: PREINCUBATION): inactive; negative
- mutagenic call (Test System: AMES SALMONELLA TYPHIMURIUM, Strain/Indicator: TA97, Metabolic Activation: NONE, Method: PREINCUBATION): inactive; negative
- mutagenic call (Test System: AMES SALMONELLA TYPHIMURIUM, Strain/Indicator: TA97, Metabolic Activation: RAT, LIVER, S-9, AROCLOR 1254 (10% & 30%), Method: PREINCUBATION): inactive; negative
- mutagenic call (Test System: AMES SALMONELLA TYPHIMURIUM, Strain/Indicator: TA98, Metabolic Activation: HAMSTER, LIVER, S-9, AROCLOR 1254 (10% & 30%), Method: PREINCUBATION): inactive; negative
- mutagenic call [1]: inactive; negative
- mutagenic call (Test System: AMES SALMONELLA TYPHIMURIUM, Strain/Indicator: TA98, Metabolic Activation: RAT, LIVER, S-9, AROCLOR 1254 (10% & 30%), Method: PREINCUBATION): inactive; negative
- mutagenic call (Test System: AMES SALMONELLA TYPHIMURIUM, Strain/Indicator: TA100, Metabolic Activation: HAMSTER, LIVER, S-9, AROCLOR 1254 (10% & 30%), Method: PREINCUBATION): inactive; negative
- mutagenic call [3]: inactive; negative
- mutagenic call (Test System: AMES SALMONELLA TYPHIMURIUM, Strain/Indicator: TA100, Metabolic Activation: RAT, LIVER, S-9, AROCLOR 1254 (10% & 30%), Method: PREINCUBATION): inactive; negative
- mutagenic call (Test System: AMES SALMONELLA TYPHIMURIUM, Strain/Indicator: TA1535, Metabolic Activation: HAMSTER, LIVER, S-9, AROCLOR 1254 (10% & 30%), Method: PREINCUBATION): inactive; negative
- mutagenic call (Test System: AMES SALMONELLA TYPHIMURIUM, Strain/Indicator: TA1535, Metabolic Activation: NONE, Method: PREINCUBATION): inactive; negative
- mutagenic call (Test System: AMES SALMONELLA TYPHIMURIUM, Strain/Indicator: TA1535, Metabolic Activation: RAT, LIVER, S-9, AROCLOR 1254 (10% & 30%), Method: PREINCUBATION): inactive; negative

SMILES: C[C-](C)[N+](=O)[O-]
- mutagenic call [1]: active; positive
- mutagenic call [2]: active; positive
- mutagenic call [3]: active; positive
- mutagenic call [4]: active; positive
- mutagenic call [5]: active; positive
- mutagenic call (Test System: AMES SALMONELLA TYPHIMURIUM, Strain/Indicator: TA102, Metabolic Activation: NONE, Method: PREINCUBATION): active; positive
- mutagenic call (Test System: AMES SALMONELLA TYPHIMURIUM, Strain/Indicator: TA102, Metabolic Activation: RAT, LIVER, S-9, AROCLOR 1254, Method: PREINCUBATION): active; positive
- mutagenic call (Test System: AMES SALMONELLA TYPHIMURIUM, Strain/Indicator: TA102, Metabolic Activation: RAT, LIVER, S-9, AROCLOR, Method: PREINCUBATION): active; positive
- mutagenic call (Test System: UDS CHINESE HAMSTER V-79 CELLS, Metabolic Activation: NONE, Method: AUTORADIOGRAPHY): active; positive
- mutagenic call (Test System: UDS CHINESE HAMSTER V-79 CELLS, Strain/Indicator: V-79-MZ/CYTIDINE INCORPORATION, Metabolic Activation: NONE, Method: AUTORADIOGRAPHY): inactive; negative
- mutagenic call (Test System: UDS CHINESE HAMSTER V-79 CELLS, Strain/Indicator: V-79-RHST20/CYTIDINE INCORPORATION, Metabolic Activation: NONE, Method: AUTORADIOGRAPHY): inactive; negative
- mutagenic call (Test System: UDS CHINESE HAMSTER V-79 CELLS, Strain/Indicator: V-79-RHSTA/CYTIDINE INCORPORATION, Metabolic Activation: NONE, Method: AUTORADIOGRAPHY): inactive; negative
- mutagenic call (Test System: UDS CHINESE HAMSTER V-79 CELLS, Strain/Indicator: V-79-RPST-IV/CYTIDINE INCORPORATION, Metabolic Activation: NONE, Method: AUTORADIOGRAPHY): active; positive
- mutagenic call (Test System: UDS HUMAN HEPATOCYTES, Strain/Indicator: THY INCORP, Metabolic Activation: NONE, Method: AUTORADIOGRAPHY): active; positive
- mutagenic call (Test System: UDS MOUSE HEPATOCYTES, Strain/Indicator: THY INCORP, Metabolic Activation: NONE, Method: AUTORADIOGRAPHY): active; positive
- mutagenic call (Test System: UDS RAT HEPATOCYTES, Strain/Indicator: THY INCORP, Metabolic Activation: NONE, Method: AUTORADIOGRAPHY): active; positive

SMILES: O=C(NCO)c1ccc(Cl)cc1
- mutagenic call (Test System: AMES SALMONELLA TYPHIMURIUM, Strain/Indicator: TA100, Metabolic Activation: RAT, LIVER, S-9, AROCLOR AND 3'-PHOSPHOADENOSINE-5'-PHOSPHOSULPHATE GENERATING SYSTEM, Method: PREINCUBATION): inactive; negative
- mutagenic call (Test System: AMES SALMONELLA TYPHIMURIUM, Strain/Indicator: TA100, Metabolic Activation: RAT, LIVER, S-9, AROCLOR AND ACETYL COENZYME A, Method: PREINCUBATION): inactive; negative
- mutagenic call [5]: inactive; negative

SMILES: BrCc1ccc2cccc3c2c1-c1ccccc1-3
- mutagenic call [6]: active; positive
- mutagenic call [7]: active; positive

SMILES: COC(=O)c1occ(-c2ccccc2)c1-c1ccccc1
- mutagenic call [6]: inactive; negative
- mutagenic call [7]: inactive; negative

SMILES: BrCc1c2ccccc2cc2ccccc12
- mutagenic call [6]: active; positive
- mutagenic call [7]: active; positive

SMILES: Cc1ccc2cc3c(ccc4ccccc43)c3c2c1CC3OS(=O)(=O)O (stereo unspecified)
- mutagenic call [1]: active; positive
- mutagenic call [3]: active; positive

SMILES: Cc1ccc2c([N+](=O)[O-])cccc2c1
- mutagenic call [1]: active; positive

SMILES: CN=C1C=CC(=C(c2ccc(NC)cc2)c2ccc(N(C)C)cc2)C=C1
- mutagenic call (Test System: AMES SALMONELLA TYPHIMURIUM, Strain/Indicator: TA97, Metabolic Activation: NONE, Method: STANDARD PLATE): inactive; negative
- mutagenic call (Test System: AMES SALMONELLA TYPHIMURIUM, Strain/Indicator: TA97, Metabolic Activation: RAT, LIVER, S-9, AROCLOR 1254, Method: STANDARD PLATE): inactive; negative
- mutagenic call [6]: inactive; negative
- mutagenic call (Test System: AMES SALMONELLA TYPHIMURIUM, Strain/Indicator: TA98, Metabolic Activation: RAT, LIVER, S-9, AROCLOR 1254, Method: STANDARD PLATE): inactive; negative
- mutagenic call [7]: inactive; negative
- mutagenic call (Test System: AMES SALMONELLA TYPHIMURIUM, Strain/Indicator: TA100, Metabolic Activation: RAT, LIVER, S-9, AROCLOR 1254, Method: STANDARD PLATE): inactive; negative
- mutagenic call (Test System: AMES SALMONELLA TYPHIMURIUM, Strain/Indicator: TA104, Metabolic Activation: NONE, Method: STANDARD PLATE): inactive; negative
- mutagenic call (Test System: AMES SALMONELLA TYPHIMURIUM, Strain/Indicator: TA104, Metabolic Activation: RAT, LIVER, S-9, AROCLOR 1254, Method: STANDARD PLATE): inactive; negative
